Tests used:
human dermal fibroblasts = assay: Wound healing gene expression RT-qPCR array, fibroblasts; assay type: cell-based; details: 10^−7M, 15 h, relative to ethanol control
Description: The healing properties of E4 were investigated at the transcriptional level by studying gene expression changes by RT-qPCR. 84 genes qPCR arrays focusing on the wound healing process were used. These arrays contain genes important for the three phases of wound healing process, including extra-cellular matrix (ECM) remodeling factors, inflammatory cytokines and chemokines as well as growth factors and major signaling molecules. The changes in gene expression were interpreted in a dermo cosmetic context in order to highlight the potential benefits of the E4 towards wound healing.
After 24 h seeded on 25 cm^2 culture flasks (T25), cells were treated with E4 during 15 h. The culture conditions were the same as the one used for the scratch test (see Example 2) and cells were treated with E4 in absence of FBS/HKGS. The cell density used for gene expression assay was lower than the ones used for the scratch tests: 15 800 cells/cm^2 for gene expression assay vs 113 636 cell/cm^2 for keratinocytes and 100 000 cells/cm^2 for fibroblasts in culture inserts for wound closure assay.
At the end of the 15 h treatment with E4 10^−7M or ethanol 0.1% used as control, total RNAs were extracted using the Qiagen RNeasy kit (Qiagen). Cells were rinsed with cold PBS and lysed in the ad hoc buffer provided in the kit. Extraction was performed according to the supplier's recommendations. The collected RNAs were stored at −80° C.
The RNA concentration was determined by spectrophotometric measurement (QIAxpert, Qiagen) and the RNA quality was analyzed by capillarity electrophoresis (Agilent Bioanalyzer 2100—Agilent RNA 6000 Nano Kit).
Reverse transcription was performed with kit “RT2 First Strand Kit” (Qiagen) from total RNA according to the manufacturer's instructions.
The qPCR method was used to quantify the expression changes of specific markers in the cDNA populations. The arrays “RT2 Profiler PCR Array human wound healing” containing specific primers for 84 target genes.
The amplification of target genes was performed following the supplier's recommendations thanks to a “HotStart Taq DNA Polymerase” and to the use of SYBR Green as detection method. The SYBR Green is a marker emitting fluorescence once inserted between the paired bases of nucleic acids. The fluorescence intensity is thus directly proportional to the quantity of produced amplicons.
The qPCRs were run using the Quantstudio7 Real-Time PCR System (Applied Biosystems) and its software (QuantStudio real time PCR Software v1.3. software, Applied Biosystems).
The data obtained for E4 treated conditions were compared to the ethanol control in both cell types. The threshold cycles (Ct) values were normalized to the mean of Ct of several housekeeping genes present on the array (indicated in the table below). The maximum Ct cut-off value was fixed at 36 cycles meaning that Ct values above 36 were not considered in the analysis.

[1] = test system: human hair follicles (HF); assay: Hair follicle organ culture: LDH release into the medium; assay type: cell-based; details: all tested concentrations (300 nM, 3 μM, 30 μM)
Protocol: (§1) 12-44 full-length frontotemporal hair follicles (HF) were obtained from four human female donors >50 years old. Donors were caucasian female subjects […], respectively (Donor 1: 12 temporal anagen HFs; Donor 2: 29; Donor 3: 44; Donor 4: 32). After microdissection from skin as described (Edelkamp et al., Methods Mol Biol, 2020, 2154:105-119; and Langan et al., Exp Dermatol, 2015, December; 24(12):903-1), HFs were placed in adequate culture medium and allowed a 24 h rest period to allow them to recover from the trauma of microdissection. Test substance (either vehicle (0.3% EtOH) or E4 at concentrations of 30 μM, 3 μM or 300 nM) was added to the medium at the end of the 24 h. Total culturing time was 5-7 days depending on the studied parameters and the experimental question. The experimental design for the hair follicle organ culture experiment is depicted in FIG. 12. Longer term culture experiments may be used to analyze the capacity to delay the onset of catagen.
LDH is released from the cytoplasm of damaged cells into the culture medium. Therefore, the cytotoxicity of agents can be estimated based on the activity of LDH present in the culture medium using a colorimetric assay (Cytotoxicity Detection Kit [LDH], Roche) as described (Gherardini et al Int J Cosmet Sci, 2019, April; 41(2):164-182). […]

[2] = test system: CD34 positive cells in the suprabulbar ORS; assay: Hair follicle organ culture: CD34 expression, stem cell progeny; assay type: cell-based, human; details: vs vehicle
Protocol: as §1
CD34 is a marker expressed by the progeny of HF bulge stem cells. It is expressed in the most external layer of the outer root sheet (ORS) below the isthmus (sub-bulge to suprabulbar regions) (Purba et al., BioEssays, 2014, May; 36(5):513-25). CD34 expression and percentage of CD34^+ cells were analyzed in the suprabulbar ORS.

K15 positive cells = assay: Hair follicle organ culture: K15 expression, stem cells; assay type: cell-based, human; details: vs vehicle
Protocol: as §1
K15 is a type I cytokeratin expressed in HF bulge stem cells and their progeny (Purba et al., BioEssays, 2014). It is expressed in the bulge, infra-bulge and suprabulbar ORS. Bulge stem cells are identified using K15 expression, cellular morphology and anatomical localization (below the sebaceous glands, at the area where the arrector pili muscle attaches to the HF). K15 expression was analyzed in the bulge basal layer and in the suprabulbar ORS, and proliferation of K15 positive cells was evaluated in combination with Ki67 immunofluorescence staining.

Structure (SMILES): C[C@]12CC[C@@H]3c4ccc(O)cc4CC[C@H]3[C@@H]1[C@@H](O)[C@@H](O)[C@@H]2O [E4, 1,3,5 (10)-estratrien-3,15alpha,16alpha,17beta-tetrol]
- COL1A2 (Collagen alpha-2(I) chain) expression, FC (human dermal fibroblasts): 0.9445 Fold Change (FC)
- CTGF (CCN family member 2) expression, FC (human dermal fibroblasts): 0.7643 Fold Change (FC)
- MAPK1 (Mitogen-activated protein kinase 1) expression, FC (human dermal fibroblasts): 0.9284 Fold Change (FC)
- MMP7 (Matrix metalloproteinase-7; Matrilysin) expression, FC (human dermal fibroblasts): 1.1451 Fold Change (FC)
- SERPINE1 (Plasminogen activator inhibitor 1) expression, FC (human dermal fibroblasts): 0.8516 Fold Change (FC)
- VTN (Vitronectin) expression, FC (human dermal fibroblasts): 0.7652 Fold Change (FC)
- WNT5A (Protein Wnt-5a) expression, FC (human dermal fibroblasts): 0.8930 Fold Change (FC)
- HF cytotoxicity (LDH release into the medium) [1]: did not induce HF cytotoxicity
- increased percentage of CD34 positive cells in the suprabulbar ORS ([2]; 300 nM): tendentially
- increased percentage of CD34 positive cells in the suprabulbar ORS ([2]; 3 μM): significantly
- increased percentage of CD34 positive cells in the suprabulbar ORS ([2]; 30 μM): tendentially
- percentage of K15 positive cells in the suprabulbar ORS (K15 positive cells; 300 nM, 3 μM, 30 μM): did not have any effect
- decreased proliferation of K15 positive cells in the suprabulbar ORS (Ki-67) (K15 positive cells; 300 nM): significantly
- increased proliferation of K15 positive cells in the bulge basal layer (Ki-67) (K15 positive cells; 300 nM): tendentially
- decreased proliferation of K15 positive cells in the suprabulbar ORS (Ki-67) (K15 positive cells; 3 μM): tendentially
- increased proliferation of K15 positive cells in the bulge basal layer (Ki-67) (K15 positive cells; 3 μM): tendentially
- percentage of K15 positive cells in the bulge basal layer (K15 positive cells; 3 μM): significantly decreased
- increased proliferation of K15 positive cells in the bulge basal layer (Ki-67) (K15 positive cells; 30 μM): significantly

Source: patent publication US20250099485A1, “COMPOSITIONS FOR PROMOTING HAIR GROWTH” (ESTETRA SRL, priority 2021, published 2025)
